This assay addresses ERK2 (Homo sapiens, UniProt P28482). In words: Z′-LYTE kinase inhibition assay. The settings on record: ATP concentration 100 μM. Type of assay: biochemical.

ERK2, sequence (P28482 whole entry): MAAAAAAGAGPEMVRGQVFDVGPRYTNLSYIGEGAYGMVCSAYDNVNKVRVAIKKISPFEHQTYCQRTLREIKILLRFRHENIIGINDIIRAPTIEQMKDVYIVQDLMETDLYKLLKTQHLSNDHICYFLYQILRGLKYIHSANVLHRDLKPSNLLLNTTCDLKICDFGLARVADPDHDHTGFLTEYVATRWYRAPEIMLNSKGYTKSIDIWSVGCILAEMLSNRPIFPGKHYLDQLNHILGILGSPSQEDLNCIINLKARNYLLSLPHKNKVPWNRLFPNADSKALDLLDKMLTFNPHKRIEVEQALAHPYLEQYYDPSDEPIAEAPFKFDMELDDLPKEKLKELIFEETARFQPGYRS

With `Nc1cccc2cc[nH]c(=O)c12` [MR1], the “inhibition (in words)” value is listed as “not inhibited”.

The values above are taken from PMC7593776 (RSC Medicinal Chemistry, 2020).
